{"source": "paper PMC12615753", "about": "“Glutathione as a taste modulator: molecular mechanisms of interaction with umami and sweet taste receptors” (Food Chemistry: Molecular Sciences, 2025)", "key": {"hTAS1R1/rTAS1R3(Mut1)": {"target": "T1, hTAS1R1/rTAS1R3(Mut1) (UniProt Q7RTX1+Q923K1, A277V/L68N/R278H/S168G/S302A)", "T1 sequence (Q7RTX1 21-841)": "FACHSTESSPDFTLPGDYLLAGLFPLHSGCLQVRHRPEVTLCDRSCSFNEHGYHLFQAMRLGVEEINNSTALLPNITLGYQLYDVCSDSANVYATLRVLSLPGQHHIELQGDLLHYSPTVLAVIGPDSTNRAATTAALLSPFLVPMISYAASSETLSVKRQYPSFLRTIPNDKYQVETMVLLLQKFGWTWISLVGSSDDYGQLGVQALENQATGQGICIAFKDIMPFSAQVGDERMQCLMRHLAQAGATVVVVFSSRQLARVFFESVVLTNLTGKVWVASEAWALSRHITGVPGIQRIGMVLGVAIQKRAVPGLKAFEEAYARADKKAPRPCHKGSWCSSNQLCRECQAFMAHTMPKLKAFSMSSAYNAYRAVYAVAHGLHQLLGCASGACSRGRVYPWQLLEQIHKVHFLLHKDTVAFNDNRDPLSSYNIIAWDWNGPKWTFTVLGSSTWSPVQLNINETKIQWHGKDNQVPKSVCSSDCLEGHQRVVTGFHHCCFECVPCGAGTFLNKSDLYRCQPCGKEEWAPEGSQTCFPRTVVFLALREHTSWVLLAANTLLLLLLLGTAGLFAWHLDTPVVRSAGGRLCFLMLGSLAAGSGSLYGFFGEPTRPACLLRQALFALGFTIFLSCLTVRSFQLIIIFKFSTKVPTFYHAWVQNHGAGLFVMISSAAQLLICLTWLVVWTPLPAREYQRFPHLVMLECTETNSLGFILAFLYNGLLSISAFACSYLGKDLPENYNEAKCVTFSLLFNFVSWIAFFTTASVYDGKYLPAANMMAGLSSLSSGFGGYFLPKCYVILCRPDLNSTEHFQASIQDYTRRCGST", "T1 sequence (Q923K1 21-858 L68N/S168G/A277V/R278H/S302A)": "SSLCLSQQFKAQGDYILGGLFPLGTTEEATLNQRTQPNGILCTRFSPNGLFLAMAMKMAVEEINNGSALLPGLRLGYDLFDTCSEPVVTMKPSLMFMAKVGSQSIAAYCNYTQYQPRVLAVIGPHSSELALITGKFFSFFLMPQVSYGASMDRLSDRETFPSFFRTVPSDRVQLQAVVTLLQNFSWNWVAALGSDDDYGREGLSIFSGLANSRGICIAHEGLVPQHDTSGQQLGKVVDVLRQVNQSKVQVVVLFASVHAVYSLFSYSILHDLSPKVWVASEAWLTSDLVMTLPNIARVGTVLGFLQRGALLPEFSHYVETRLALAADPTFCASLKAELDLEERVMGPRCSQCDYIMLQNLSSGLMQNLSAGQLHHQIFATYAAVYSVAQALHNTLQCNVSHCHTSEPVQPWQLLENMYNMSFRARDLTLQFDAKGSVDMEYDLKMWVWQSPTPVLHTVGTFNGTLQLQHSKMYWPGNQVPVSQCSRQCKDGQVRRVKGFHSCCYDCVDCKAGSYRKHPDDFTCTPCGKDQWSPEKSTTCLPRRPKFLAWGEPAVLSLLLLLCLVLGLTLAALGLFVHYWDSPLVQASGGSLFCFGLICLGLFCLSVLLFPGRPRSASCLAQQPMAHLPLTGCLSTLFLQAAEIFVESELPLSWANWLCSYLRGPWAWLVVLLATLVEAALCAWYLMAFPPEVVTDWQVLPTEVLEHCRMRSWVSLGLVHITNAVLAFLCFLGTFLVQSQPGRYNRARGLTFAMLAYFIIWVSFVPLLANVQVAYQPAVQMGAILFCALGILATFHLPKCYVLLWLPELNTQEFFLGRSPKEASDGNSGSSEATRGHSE", "assay": "Calcium assay, mutated rTAS1R3 co-expressed with hTAS1R1", "protocol": "(§1) HEK293T/17 cells (ATCC CRL-11268) were seeded into clear bottom black 96-well plates coated with poly-D-lysine at a density of 32500 cells/well in 100 μL of DMEM containing 4.5 g/L glucose and supplemented with penicillin/streptomycin, 2 mM GlutaMAX and 10 % dialyzed fetal bovine serum. The plates were incubated for 24 h at 37 °C and 7.3 % CO2 in a humidified atmosphere. After incubation, using Fugene® 4 K (0.46 μL/well, Promega, Illkirch, France), the cells were transiently transfected with pcDNA3-hTAS1R1-WT (60 ng/well) or TAS1R1 mutants, pcDNA4-rTAS1R3 (60 ng/well), pcDNA3-Gα15i2 (10 ng/well), and pGP-CMV-GCaMP6s (Addgene #40753; 10 ng/well) as a genetically encoded calcium indicator. Twenty-four hours after transfection, the HEK293T/17 cells were rinsed with 100 μL of C1 buffer (130 mM NaCl, 5 mM KCl, 10 mM HEPES, 2 mM CaCl2, and 5 mM sodium pyruvate, pH 7.4). For each molecule tested, a semi-logarithmic concentration range was created consisting of seven increasing concentrations and a negative control (zero dose) made of buffer C1. Binary mixtures with different molecules were also made to study potential synergy. In this case, the concentration range was tested in C1 buffer containing the other molecules to be tested. The concentration ranges varied depending on the molecule, its solubility, and its effectiveness in activating the receptor. All the solutions were made on the day of the test to prevent any oxidation of the compounds. If needed, the pH of each solution was adjusted by to pH 7.4 by adding NaOH. After 20 s of basal fluorescence calcium measurement, the cells were stimulated via automatic injection of a range of compounds in eight wells, and the signal emission was recorded for an additional 70 s, via a FlexStation 3® fluorometric microplate reader (Molecular Devices, San Jose, CA, USA). As a control, molecules were also tested on mock-transfected cells with the empty vector. The emitted fluorescence was measured at a wavelength of 510 nm after excitation at 488 nm. Each measurement was performed in duplicate on the same plate, and the experiments were carried out at least four times. Kinetic data were acquired via SoftMax Pro 5.4.6 software (Molecular Devices). For each well, the decrease in the raw fluorescence as the relative fluorescence changed was calculated as ΔF/F0. Replicates were averaged for the wells subjected to the same stimuli, the background signal was subtracted, and the fluorescence changes in mock-transfected cells were subtracted. The half-maximal effective concentration (EC50) and maximal signal amplitude (max ∆F/F0) were calculated via non-linear regression of the sigmoidal function four-parameter logistic equation [f(x) = min + (max − min)/(1 + (x/EC50)^nH)] via SigmaPlot 15.0 software (Grafiti LLC, Palo Alto, CA, USA). […] For a clearer understanding of the results, the amplitude values in certain dose-response curves were normalized to max ∆F/F0 = 1, to eliminate the differences in amplitude.\nWe also selected other residues surrounding the cavity that differed from species to species and were not directly involved in ligand binding but rather in dynamic phenomena resulting in signal transmission, namely, four residues located less deep in the binding cavity that we mutated to their human counterparts (Y281H, S282A, P67S, L72W) (Mut2) (Fig. S3). Finally, we targeted positions at the interface between the VFTs of TAS1R1 and TAS1R3. […] A double mutant (E221Q and R173L) (Mut3) was thus created. For each group, we constructed multisite mutants (penta-, quadruple-, or double-mutants) to assess their combined effects efficiently."}, "hTAS1R1/rTAS1R3(Mut2)": {"target": "T2, hTAS1R1/rTAS1R3(Mut2) (UniProt Q7RTX1+Q923K1, L72W/P67S/S282A/Y281H)", "T2 sequence (Q7RTX1 21-841)": "T1 sequence (Q7RTX1 21-841)", "T2 sequence (Q923K1 21-858 P67S/L72W/Y281H/S282A)": "T1 sequence (Q923K1 21-858 L68N/S168G/A277V/R278H/S302A) with P47S, N48L, L52W, G148S, V257A, H258R, Y261H, S262A, A282S", "assay": "Calcium assay, mutated rTAS1R3 co-expressed with hTAS1R1", "details": "for response to the agonist alone: Mut2", "protocol": "as §1\nWe also selected other residues surrounding the cavity that differed from species to species and were not directly involved in ligand binding but rather in dynamic phenomena resulting in signal transmission, namely, four residues located less deep in the binding cavity that we mutated to their human counterparts (Y281H, S282A, P67S, L72W) (Mut2) (Fig. S3)."}}, "note": "Residue numbers refer to the chain shown, from its start."}
{"smiles": "CCCC(CCC)NC(=O)c1ccc2c(c1)OCO2", "note": "[S807, N-(heptan-4-yl)benzo[d][1,3]dioxole-5-carboxamide, reference compound]", "values": [{"measurement": "EC50", "setting": "hTAS1R1/rTAS1R3(Mut1)", "value": "1.69 ± 0.1", "unit": "µM"}, {"measurement": "response to the agonist alone", "setting": "hTAS1R1/rTAS1R3(Mut1); Mut1", "value": "unaffected"}, {"measurement": "EC50", "setting": "hTAS1R1/rTAS1R3(Mut2)", "value": "1.59 ± 0.27", "unit": "µM"}, {"measurement": "response to the agonist alone", "setting": "hTAS1R1/rTAS1R3(Mut2)", "value": "severely impaired"}]}
{"smiles": "N[C@@H](CCC(=O)O)C(=O)O", "note": "[L-Glu, L-glutamic acid, reference compound]", "values": [{"measurement": "response to the agonist alone", "setting": "hTAS1R1/rTAS1R3(Mut1); Mut1", "value": "responded"}, {"measurement": "response to the agonist alone", "setting": "hTAS1R1/rTAS1R3(Mut2)", "value": "abolished"}]}
{"smiles": "N[C@@H](CCC(=O)N[C@@H](CS)C(=O)NCC(=O)O)C(=O)O", "note": "[GSH, γ-L-glutamyl-L-cysteinyl-glycine]", "values": [{"measurement": "EC50", "setting": "hTAS1R1/rTAS1R3(Mut1)", "value": "9010 ± 697", "unit": "µM"}, {"measurement": "effect of the added compound on the response to L-Glu", "setting": "hTAS1R1/rTAS1R3(Mut1); Mut1", "value": "increased"}, {"measurement": "response to the agonist alone", "setting": "hTAS1R1/rTAS1R3(Mut1); Mut1", "value": "reduced"}, {"measurement": "EC50", "setting": "hTAS1R1/rTAS1R3(Mut2)", "value": "1220 ± 488", "unit": "µM"}, {"measurement": "response to the agonist alone", "setting": "hTAS1R1/rTAS1R3(Mut2)", "value": "abolished"}]}
